Experimental data from paper PMC9410468 (Marine Drugs, 2022).

What was measured:
rα6/α3β4 nAChR = format: cell-based, rat
rα3β4 nAChR = rα3β4 nAChR (Rattus norvegicus, UniProt P04757+P12392); format: cell-based
RAW264.7 cells [1] = format: cell-based, mouse
RAW264.7 cells [2] = format: cell-based, mouse; remark: listed apart in the source
α3β4 nAChR = conditions: cited from earlier work
[3] = in vivo; cited from earlier work

rα3β4 nAChR, sequence (P04757 26-499 limits assumed): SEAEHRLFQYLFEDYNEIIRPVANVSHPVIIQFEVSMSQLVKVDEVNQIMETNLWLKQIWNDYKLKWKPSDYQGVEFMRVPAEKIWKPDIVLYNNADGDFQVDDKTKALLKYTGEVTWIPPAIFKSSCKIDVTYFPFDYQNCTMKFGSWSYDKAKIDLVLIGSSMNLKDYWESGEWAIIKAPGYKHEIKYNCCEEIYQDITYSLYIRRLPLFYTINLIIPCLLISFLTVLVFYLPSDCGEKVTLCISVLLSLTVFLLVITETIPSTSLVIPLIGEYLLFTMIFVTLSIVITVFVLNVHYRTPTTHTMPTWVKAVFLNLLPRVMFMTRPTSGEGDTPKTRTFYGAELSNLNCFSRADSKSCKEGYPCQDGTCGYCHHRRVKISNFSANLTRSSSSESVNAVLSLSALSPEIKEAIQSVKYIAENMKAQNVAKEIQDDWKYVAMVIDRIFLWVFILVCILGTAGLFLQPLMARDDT
rα3β4 nAChR, sequence (P12392 21-495 limits assumed): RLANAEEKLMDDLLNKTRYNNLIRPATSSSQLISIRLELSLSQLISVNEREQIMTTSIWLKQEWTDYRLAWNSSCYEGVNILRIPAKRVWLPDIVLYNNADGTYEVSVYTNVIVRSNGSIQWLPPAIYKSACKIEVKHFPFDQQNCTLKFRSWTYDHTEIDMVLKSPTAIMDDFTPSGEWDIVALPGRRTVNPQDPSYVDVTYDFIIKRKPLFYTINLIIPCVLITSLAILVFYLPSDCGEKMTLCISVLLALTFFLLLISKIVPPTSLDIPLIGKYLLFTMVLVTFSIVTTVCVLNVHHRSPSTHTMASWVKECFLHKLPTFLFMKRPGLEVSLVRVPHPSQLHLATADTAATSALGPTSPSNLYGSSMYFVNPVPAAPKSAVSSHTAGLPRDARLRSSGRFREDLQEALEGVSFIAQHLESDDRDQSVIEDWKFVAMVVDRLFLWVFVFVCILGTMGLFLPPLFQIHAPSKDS

SMILES | inhibitory activity at rα6/α3β4 (in words) (rα6/α3β4 nAChR) | Hill Slope (rα3β4 nAChR) | change of IC50 compared with WT TxID (rα3β4 nAChR) | inhibitory activity at rα3β4 (in words) (rα3β4 nAChR) | potency at α3β4 compared with native TxID (in words) (rα3β4 nAChR) | fluorescence intensity, flow cytometry (in words) (RAW264.7 cells [1]) | red fluorescence labelling of cells (in words) (RAW264.7 cells [2]) | IC50 (α3β4 nAChR) | anti-nicotine addiction effect (in words) [3]
CC[C@H](C)[C@@H]1NC(=O)[C@@H]2CCCN2C(=O)[C@H](CO)NC(=O)[C@H](CCSC)NC(=O)[C@H](C)NC(=O)[C@H](CO)NC(=O)[C@@H]2CSSC[C@H](NC(=O)CNC(=O)c3ccc(-c4c5ccc(=[N+](C)C)cc-5oc5cc(N(C)C)ccc45)c(C(=O)[O-])c3)C(=O)N[C@@H](CSSC[C@@H](C(N)=O)NC1=O)C(=O)N[C@@H](CO)C(=O)N[C@@H](Cc1c[nH]cn1)C(=O)N1CCC[C@H]1C(=O)N[C@@H](C(C)C)C(=O)N2 [TxID-F] | followed with the rα6/α3β4 subtype | 0.8 (0.7–0.9) | 3 fold | most inhibitory activity | maintained the same order of potency | strong fluorescence intensity | red fluorescence signal was observed on the RAW264.7 cells |  | 
CC[C@H](C)[C@@H]1NC(=O)[C@@H]2CCCN2C(=O)[C@H](CO)NC(=O)[C@H](CCSC)NC(=O)[C@H](C)NC(=O)[C@H](CO)NC(=O)[C@@H]2CSSC[C@H](NC(=O)CN)C(=O)N[C@@H](CSSC[C@@H](C(N)=O)NC1=O)C(=O)N[C@@H](CO)C(=O)N[C@@H](Cc1c[nH]cn1)C(=O)N1CCC[C@H]1C(=O)N[C@@H](C(C)C)C(=O)N2 [TxID] |  | 0.6 (0.5–0.7) |  |  |  |  |  | […] | anti-nicotine addiction effect
